Key:
Format in all cases: biochemical
[1] = biological target: T1, human macrophage elastase (HME/hMMP-12) (Homo sapiens, UniProt P39900); assay: In vitro HME inhibition test (standard or high-sensitivity); conditions: in some cases mean values
T1 construct: 0.5 nM HME; purchased R&D Systems 917-MP
Outline: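 Fluorogenic assay: 0.5 nM autoactivated HME with 5 µM Mca-Pro-Leu-Gly-Leu-Glu-Glu-Ala-Dap(Dnp)-NH2 in HEPES pH 7.4 buffer (NaCl, CaCl2, ZnCl2, EDTA, Brij), 2 h at 37 °C; ex 323/em 393 nm. IC50 from fluorescence versus concentration. High-sensitivity format: ~0.05 nM enzyme, ~16 h incubation.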

[2] = biological target: T2, MMP-7 (Homo sapiens, UniProt P09237); assay: In vitro MMP-7 inhibition test
T2 construct: purchased R&D Systems 907-MP
T2 sequence (P09237 95-267): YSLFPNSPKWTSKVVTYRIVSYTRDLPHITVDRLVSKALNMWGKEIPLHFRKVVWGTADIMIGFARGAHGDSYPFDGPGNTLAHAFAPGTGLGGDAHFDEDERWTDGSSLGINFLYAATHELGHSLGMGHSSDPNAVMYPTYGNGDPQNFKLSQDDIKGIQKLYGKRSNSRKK
From the text: (§1) The MMP-mediated amidolytic cleavage of a suitable peptide substrate leads to an increase in fluorescent light here too. The signal intensity of the fluorescent light is directly proportional to the enzyme activity. The active concentration of a test compound at which half the enzyme is inhibited (50% signal intensity of the fluorescent light) is reported as the IC50 value.
Recombinant MMP-7 (from R&D Systems, 907-MP) is chemically activated in accordance with the manufacturer's instructions using APMA. 1 μl of the test compound to be analysed (as a solution in DMSO, suitable concentrations, for example, 1 nM to 30 μM) is pipetted into 24 μl of activated enzyme (final concentration, for example, 0.5 nM) in reaction buffer (50 mM Tris/HCl pH 7.5, 10 mM CaCl2, 150 mM NaCl, 0.05% Brij®-35) in a white 384-hole microtiter plate (MTP). The enzymatic reaction is started by adding the intramolecularly quenched Mca-Pro-Leu-Gly-Leu-Dpa(Dnp)-Ala-Arg-NH2 substrate (final concentration, for example, 10 μM; R&D Systems, ES-001), so as to result in a total test volume of […] The course of the MMP-7 reaction is measured by measuring the fluorescence intensity (excitation 320 nm, emission 410 nm) over a suitable period of time (for example over 120 min at a temperature of 32° C.).

[3] = biological target: T3, MMP-14 (Homo sapiens, UniProt P50281); assay: In vitro MMP-14 inhibition test
T3 construct: purchased R&D Systems 918-MP
From the text: as §1
Recombinant MMP-14 (from R&D Systems, 918-MP) is enzymatically activated in accordance with the manufacturer's instructions using recombinant furin (from R&D Systems, 1503-SE). 1 μl of the test compound to be analysed (as a solution in DMSO, suitable concentrations e.g. 1 nM to 30 μM) is pipetted into 24 μl of activated enzyme (final concentration e.g. 0.5 nM) in reaction buffer (50 mM Tris/HCl pH 7.5, 10 mM CaCl2, 150 mM NaCl, 0.05% Brij®-35) in a white 384-hole microtiter plate (MTP). The enzymatic reaction is started by adding the intramolecularly quenched Mca-Lys-Pro-Leu-Gly-Leu-Dpa(Dnp)-Ala-Arg-NH2 substrate (final concentration, for example, 5 μM; R&D Systems, ES-010), so as to result in a total test volume of 50 The course of the MMP-14 reaction is measured by measuring the fluorescence intensity (excitation 320 nm, emission 410 nm) over a suitable period of time (for example over 120 min at a temperature of 32° C.).

[4] = biological target: T4, mouse MMP-12 (Mus musculus, UniProt P34960); assay: In vitro mouse MMP-12 inhibition test (standard or high-sensitivity)
T4 construct: purchased R&D Systems 3467-MP
T4 sequence (P34960 110-473): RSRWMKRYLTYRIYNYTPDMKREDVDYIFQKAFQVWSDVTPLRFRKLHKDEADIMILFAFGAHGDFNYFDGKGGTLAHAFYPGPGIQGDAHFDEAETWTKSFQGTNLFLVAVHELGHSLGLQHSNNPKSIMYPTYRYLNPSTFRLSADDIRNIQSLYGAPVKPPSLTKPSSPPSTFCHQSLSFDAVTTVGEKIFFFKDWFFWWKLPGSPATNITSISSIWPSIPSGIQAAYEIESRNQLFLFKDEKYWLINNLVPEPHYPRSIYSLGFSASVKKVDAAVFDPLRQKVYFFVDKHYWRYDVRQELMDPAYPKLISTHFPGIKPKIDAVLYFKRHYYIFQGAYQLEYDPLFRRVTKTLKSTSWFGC
From the text: as §1
Recombinant mouse MMP-12 (from R&D Systems, 3467-MP) is autocatalytically activated in accordance with the manufacturer's instructions. 1 μl of the test compound to be analysed (as a solution in DMSO, suitable concentrations, for example, 1 nM to 30 μM) is pipetted into 24 μl of activated enzyme (final concentration, for example, 1 nM) in reaction buffer (50 mM Tris/HCl pH 7.5, 10 mM CaCl2, 150 mM NaCl, 0.05% Brij®-35) in a white 384-hole microtiter plate (MTP). The enzymatic reaction is started by adding the intramolecularly quenched Mca-Lys-Pro-Leu-Gly-Leu-Dpa(Dnp)-Ala-Arg-NH2 substrate (final concentration, for example, 5 μM; R&D Systems, ES-010), so as to result in a total test volume of 50 The course of the MMP-12 reaction is measured by measuring the fluorescence intensity (excitation 320 nm, emission 410 nm) over a suitable period of time (for example over 120 min at a temperature of 32° C.).
In this case, an enzyme concentration ten times lower is used (final concentration, for example, 0.1 nM) in order to achieve an elevated test sensitivity. The incubation period chosen for the test is correspondingly longer (for example 16 hours).

T1 sequence (P39900 106-470): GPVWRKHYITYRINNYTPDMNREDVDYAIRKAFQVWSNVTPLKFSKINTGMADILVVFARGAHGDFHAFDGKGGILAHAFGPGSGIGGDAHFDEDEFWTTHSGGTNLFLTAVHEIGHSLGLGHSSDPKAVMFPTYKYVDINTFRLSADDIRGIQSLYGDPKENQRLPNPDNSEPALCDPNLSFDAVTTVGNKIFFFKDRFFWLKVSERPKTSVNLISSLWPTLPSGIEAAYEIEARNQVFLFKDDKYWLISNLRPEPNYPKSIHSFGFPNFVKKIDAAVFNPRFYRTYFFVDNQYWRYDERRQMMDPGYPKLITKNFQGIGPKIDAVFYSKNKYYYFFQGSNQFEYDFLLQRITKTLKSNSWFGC

Row | IC50 [1] [nM] | IC50 [2] [nM] | IC50 [3] [nM] | IC50 [4] [nM] | SMILES
1 | 0.14 | 1700 | 670 | 3 | Cc1ccc2nnn(C[C@@H]3CC[C@H](C(=O)c4ccc(OCc5cccc(OC(F)(F)F)c5)cc4)[C@H]3C(=O)O)c(=O)c2c1 (racemic) [Example 109, (+/−)-(1RS,2SR,5RS)-2-[(6-Methyl-4-oxo-1,2,3-benzotriazin-3(4H)-yl)methyl]-5-(4-{[3-(trifluoromethoxy)benzyl]oxy}benzoyl)cyclopentanecarboxylic acid]
2 | 0.088 | 390 | 490 | 4.9 | CCCCCOc1ccc(C(=O)[C@H]2CC[C@@H](Cn3nnc4ccc(C)cc4c3=O)[C@@H]2C(=O)O)cc1 (racemic) [Example 123, (+/−)-(1RS,2SR,5RS)-2-[(6-Methyl-4-oxo-1,2,3-benzotriazin-3(4H)-yl)methyl]-5-[4-(pentyloxy)benzoyl]cyclopentanecarboxylic acid]
3 | 0.032 | 500 | 1200 | 6.5 | O=C(O)[C@@H]1[C@@H](Cn2nnc3ccc(C(F)(F)F)cc3c2=O)CC[C@H]1C(=O)c1ccc(OCc2cccc(Cl)c2)cc1 (single isomer, unassigned) [Example 23, (+)-(1RS,2RS,5SR)-2-{4-[(3-Chlorobenzyl)oxy]benzoyl}-5-{[4-oxo-6-(trifluoromethyl)-1,2,3-benzotriazin-3(4H)-yl]methyl}cyclopentanecarboxylic acid]
4 | 0.01 | 68 | 110 | 0.71 | O=C(O)[C@@H]1[C@@H](Cn2nnc3ccc(C(F)(F)F)cc3c2=O)CC[C@H]1C(=O)c1ccc(OCC2CCCCC2)cc1 (single isomer, unassigned) [Example 41, (+)-(1RS,2RS,5SR)-2-[4-(Cyclohexylmethoxy)benzoyl]-5-{[4-oxo-6-(trifluoromethyl)-1,2,3-benzotriazin-3(4H)-yl]methyl}cyclopentanecarboxylic acid]
5 | 0.017 | 340 | 3600 | 10 | O=C(O)[C@@H]1[C@@H](Cn2nnc3ccc(C(F)(F)F)cc3c2=O)CC[C@H]1C(=O)c1ccc(OCCC2CCCCC2)cc1 (single isomer, unassigned) [Example 52, (+)-(1RS,2RS,5SR)-2-[4-(2-Cyclohexylethoxy)benzoyl]-5-{[4-oxo-6-(trifluoromethyl)-1,2,3-benzotriazin-3(4H)-yl]methyl}cyclopentanecarboxylic acid]
6 | 0.051 | 340 | 1900 | 2.3 | O=C(O)[C@@H]1[C@@H](Cn2nnc3ccc(C(F)(F)F)cc3c2=O)CC[C@H]1C(=O)c1ccc(SCc2ccccc2)cc1 (single isomer, unassigned) [Example 75, (+)-(1RS,2RS,5SR)-2-[4-(Benzylsulphanyl)benzoyl]-5-{[4-oxo-6-(trifluoromethyl)-1,2,3-benzotriazin-3(4H)-yl]methyl}cyclopentanecarboxylic acid]
7 | 0.04 | 150 | 1200 | 2 | O=C(O)[C@@H]1[C@@H](Cn2nnc3ccc(C(F)(F)F)cc3c2=O)CC[C@H]1C(=O)c1ccc(SCc2cccc(Cl)c2)cc1 (single isomer, unassigned) [Example 77, (+)-(1RS,2RS,5SR)-2-{4-[(3-Chlorobenzyl)sulphanyl]benzoyl}-5-{[4-oxo-6-(trifluoromethyl)-1,2,3-benzotriazin-3(4H)-yl]methyl}cyclopentanecarboxylic acid]
8 | 0.079 | 200 | 2600 | 4.3 | O=C(O)[C@@H]1[C@@H](Cn2nnc3ccc(C(F)(F)F)cc3c2=O)CC[C@H]1C(=O)c1ccc(SCc2ccc(Cl)c(Cl)c2)cc1 (single isomer, unassigned) [Example 80, (+)-(1RS,2RS,5SR)-2-{4-[(3,4-Dichlorobenzyl)sulphanyl]benzoyl}-5-{[4-oxo-6-(trifluoromethyl)-1,2,3-benzotriazin-3(4H)-yl]methyl}cyclopentanecarboxylic acid]

Source: patent US20170022171A1, “2,5-DISUBSTITUTED CYCLOPENTANECARBOXYLIC ACIDS AND THEIR USE” (Bayer Pharma Aktiengesellschaft, priority 2014, published 2017)
